What all share (experiment): ELISA, pentylamine-biotin incorporation into coated N,N-dimethylcasein
Common to all, as to assay type: biochemical
(In general: ELISA stands for enzyme-linked immunosorbent assay.)

Test [1] has as its target T1, zTG2a (Danio rerio, UniProt Q66L63).
T1 construct: gene tgm2a; full-length CDS in pET30a(+), His6-tagged (text: C-terminal His-tag; reverse primer keeps stop codon), E. coli BL21(DE3), Ni-NTA; primer-encoded N-terminus MERVVE, C-terminus LVIYE
T1 sequence (Q66L63 1-679): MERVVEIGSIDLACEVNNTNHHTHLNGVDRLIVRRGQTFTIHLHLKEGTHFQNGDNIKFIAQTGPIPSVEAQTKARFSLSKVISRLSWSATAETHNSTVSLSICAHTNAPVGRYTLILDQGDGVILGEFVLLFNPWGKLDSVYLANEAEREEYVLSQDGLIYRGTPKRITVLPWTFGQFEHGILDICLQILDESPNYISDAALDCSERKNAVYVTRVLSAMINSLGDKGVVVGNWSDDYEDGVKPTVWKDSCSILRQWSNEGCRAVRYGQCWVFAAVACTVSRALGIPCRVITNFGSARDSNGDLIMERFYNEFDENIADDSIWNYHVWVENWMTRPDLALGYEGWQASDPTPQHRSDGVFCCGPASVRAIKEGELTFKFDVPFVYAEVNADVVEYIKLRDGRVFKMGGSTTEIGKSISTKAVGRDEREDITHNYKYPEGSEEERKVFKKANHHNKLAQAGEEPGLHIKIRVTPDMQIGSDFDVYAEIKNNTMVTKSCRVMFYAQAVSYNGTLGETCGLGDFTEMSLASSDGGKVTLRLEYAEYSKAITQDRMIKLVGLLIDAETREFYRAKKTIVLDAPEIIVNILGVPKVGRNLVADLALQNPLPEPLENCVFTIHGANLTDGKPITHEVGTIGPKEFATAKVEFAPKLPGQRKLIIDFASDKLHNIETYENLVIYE
Conditions: 50 ng enzyme, 0.2 mM pentylamine-biotin, 5 mM CaCl2, 10 mM DTT, pH 8.0, 37 °C, 1 h; GTP 100 µM (methods) or 100 mM (figure legend).

Test [2] concerns the target T2, hTG2 (Homo sapiens, UniProt P21980).
T2 construct: gene TGM2; recombinant hTG2 used as positive control; source and tag of purified protein not detailed; 77 kDa
T2 sequence (P21980 2-687): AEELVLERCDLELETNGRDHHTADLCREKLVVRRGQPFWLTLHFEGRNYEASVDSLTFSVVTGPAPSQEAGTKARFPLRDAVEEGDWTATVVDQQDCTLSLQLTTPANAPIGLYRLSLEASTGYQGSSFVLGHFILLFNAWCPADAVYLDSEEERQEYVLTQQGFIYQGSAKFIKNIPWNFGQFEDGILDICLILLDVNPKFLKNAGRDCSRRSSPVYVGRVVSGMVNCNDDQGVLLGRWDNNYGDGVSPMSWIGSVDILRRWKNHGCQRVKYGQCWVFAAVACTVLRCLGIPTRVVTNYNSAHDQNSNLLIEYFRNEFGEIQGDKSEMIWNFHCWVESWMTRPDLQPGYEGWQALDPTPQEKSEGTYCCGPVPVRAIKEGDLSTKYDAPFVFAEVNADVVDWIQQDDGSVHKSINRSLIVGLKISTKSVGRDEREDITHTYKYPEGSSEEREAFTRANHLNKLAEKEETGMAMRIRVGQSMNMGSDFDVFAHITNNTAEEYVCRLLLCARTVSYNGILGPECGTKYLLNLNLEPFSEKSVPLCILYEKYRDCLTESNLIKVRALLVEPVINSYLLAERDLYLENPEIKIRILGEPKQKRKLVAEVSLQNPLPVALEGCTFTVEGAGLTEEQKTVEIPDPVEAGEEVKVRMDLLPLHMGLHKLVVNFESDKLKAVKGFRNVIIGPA
The following applies: 50 ng enzyme, 0.2 mM pentylamine-biotin, 5 mM CaCl2, 10 mM DTT, pH 8.0, 37 °C, 1 h; GTP 100 µM (methods) or 100 mM (figure legend).

Test [3] addresses T1, zTG2a.
Test [4] concerns the target T3, zTG2b (Danio rerio, UniProt A0ACM8QA61).
T3 construct: gene tgm2b; full-length CDS in pET30a(+), His6-tagged (text: C-terminal His-tag; reverse primer keeps stop codon), E. coli BL21(DE3), Ni-NTA; primer-encoded N-terminus MALDIG, C-terminus VIIGK
T3 sequence (A0ACM8QA61 1-679): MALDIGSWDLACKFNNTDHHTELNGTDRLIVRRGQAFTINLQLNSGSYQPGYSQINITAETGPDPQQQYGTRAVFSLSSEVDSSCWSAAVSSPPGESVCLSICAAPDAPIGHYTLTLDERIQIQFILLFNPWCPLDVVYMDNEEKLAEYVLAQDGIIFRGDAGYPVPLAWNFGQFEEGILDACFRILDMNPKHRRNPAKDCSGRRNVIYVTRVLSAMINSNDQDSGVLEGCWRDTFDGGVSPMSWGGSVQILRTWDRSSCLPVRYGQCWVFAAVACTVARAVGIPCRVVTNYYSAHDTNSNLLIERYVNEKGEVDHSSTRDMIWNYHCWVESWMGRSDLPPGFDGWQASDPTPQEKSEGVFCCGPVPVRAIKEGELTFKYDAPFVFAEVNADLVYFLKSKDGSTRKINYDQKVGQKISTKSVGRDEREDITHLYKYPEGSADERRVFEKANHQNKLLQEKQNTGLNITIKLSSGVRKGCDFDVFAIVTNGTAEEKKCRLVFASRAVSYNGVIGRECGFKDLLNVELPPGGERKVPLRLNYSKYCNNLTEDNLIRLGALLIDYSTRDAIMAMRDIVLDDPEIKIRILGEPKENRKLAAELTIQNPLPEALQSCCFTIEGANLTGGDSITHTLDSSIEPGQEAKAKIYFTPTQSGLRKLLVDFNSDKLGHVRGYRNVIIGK
The following applies: 50 ng enzyme, 0.2 mM pentylamine-biotin, 5 mM CaCl2, 10 mM DTT, pH 8.0, 37 °C, 1 h; methods print inhibitor doses as mM.

Test [5] deals with T4, zTG2like (Danio rerio, UniProt A3KQ87).
T4 construct: gene tgm2l; full-length CDS in pET30a(+), His6-tagged (text: C-terminal His-tag; reverse primer keeps stop codon), E. coli BL21(DE3), Ni-NTA; primer-encoded N-terminus MASYNA, C-terminus AVPEI
T4 sequence (A3KQ87 1-692): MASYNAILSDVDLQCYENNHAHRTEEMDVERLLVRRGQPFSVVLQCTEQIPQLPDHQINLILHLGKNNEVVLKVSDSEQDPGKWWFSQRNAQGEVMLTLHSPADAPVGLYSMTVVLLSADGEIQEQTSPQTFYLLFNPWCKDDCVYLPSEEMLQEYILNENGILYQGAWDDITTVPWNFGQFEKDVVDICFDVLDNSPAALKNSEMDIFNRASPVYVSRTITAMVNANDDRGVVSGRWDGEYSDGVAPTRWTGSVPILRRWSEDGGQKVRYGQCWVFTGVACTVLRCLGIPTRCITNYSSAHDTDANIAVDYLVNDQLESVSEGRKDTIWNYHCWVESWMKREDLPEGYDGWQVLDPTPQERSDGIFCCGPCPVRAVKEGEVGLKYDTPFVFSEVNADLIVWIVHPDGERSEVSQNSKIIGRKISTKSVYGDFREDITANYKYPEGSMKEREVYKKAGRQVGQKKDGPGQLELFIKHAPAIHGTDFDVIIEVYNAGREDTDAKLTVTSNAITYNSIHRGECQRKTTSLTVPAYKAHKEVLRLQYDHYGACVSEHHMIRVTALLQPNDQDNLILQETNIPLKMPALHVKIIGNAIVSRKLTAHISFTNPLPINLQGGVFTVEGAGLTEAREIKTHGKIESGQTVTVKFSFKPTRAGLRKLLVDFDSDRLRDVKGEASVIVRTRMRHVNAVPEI

Test [6] has as its target T4, zTG2like. The following applies: amine co-substrate with N,N-dimethylcasein; 5 mM CaCl2, 10 mM DTT, pH 8.0, 37 °C. An excerpt: ELISA, pentylamine-biotin incorporation into coated N,N-dimethylcasein on zTG2like | incorporate pentylamine-biotin into the substrate N,N-dimethylcasein in solution. All three zebrafish TGs2
In test [7] the target is T2, hTG2. The following applies: amine co-substrate with N,N-dimethylcasein; 5 mM CaCl2, 10 mM DTT, pH 8.0, 37 °C.
In test [8] the target is T1, zTG2a. The following applies: amine co-substrate with N,N-dimethylcasein; 5 mM CaCl2, 10 mM DTT, pH 8.0, 37 °C. The text has this: ELISA, pentylamine-biotin incorporation into coated N,N-dimethylcasein on zTG2a | incorporate pentylamine-biotin into the substrate N,N-dimethylcasein in solution. All three zebrafish TGs2
Test [9] deals with T3, zTG2b. The following applies: amine co-substrate with N,N-dimethylcasein; 5 mM CaCl2, 10 mM DTT, pH 8.0, 37 °C. An excerpt:
ELISA, pentylamine-biotin incorporation into coated N,N-dimethylcasein on zTG2b | incorporate pentylamine-biotin into the substrate N,N-dimethylcasein in solution. All three zebrafish TGs2

The inhibition is the drop in the measured response relative to a control, in per cent. Read a high inhibition as a strong effect.

Square brackets hold non-standard residues; d marks the D form. Peptide text beside a SMILES is read from it. * marks the point of attachment. DON = [N-]=[N+]=CC(=O)CC[C@H](N)C(=O)O; Cbz = O=C(OCc1ccccc1)*

As for `Nc1nc2c(ncn2[C@@H]2O[C@H](COP(=O)(O)OP(=O)(O)OP(=O)(O)O)[C@@H](O)[C@H]2O)c(=O)[nH]1` [GTP], the “% inhibition” value at zTG2a [1] is “zTG2a is the only zebrafish TG2 whose activity is affected by the presence of GTP”; on hTG2 [2], “the inhibitory effect of GTP was only one third of that observed for the human enzyme”.

`COC(=O)[C@H](CC(C)C)NC(=O)[C@@H]1CCCN1C(=O)[C@@H](NC(=O)[C@H](CCC(=O)C=[N+]=[N-])NC(=O)OCc1ccccc1)C(C)C` [ZDON] (Cbz-[DON]VPL-OMe): the inhibition at 25 µM against zTG2a [3] and at zTG2like [5] was about 50% in each case. In addition, at zTG2b [4], the “% inhibition at 25 μM” value is ~ 50%.

In the case of `NCCCCCNC(=O)CCCC[C@@H]1SC[C@@H]2NC(=O)N[C@@H]21` [pentylamine-biotin], the “ELISA, pentylamine-biotin incorporation into coated N,N-dimethylcasein” value at zTG2like [6] is reported as “incorporate pentylamine-biotin into the substrate N,N-dimethylcasein in solution. All three zebrafish TGs2”; on hTG2 [7], “as well as the human enzyme were able to mediate the transamidation reaction”; on zTG2a [8], “incorporate pentylamine-biotin into the substrate N,N-dimethylcasein in solution. All three zebrafish TGs2”; on zTG2b [9], “incorporate pentylamine-biotin into the substrate N,N-dimethylcasein in solution. All three zebrafish TGs2”.

The values above are taken from PMC10419279, “Biochemical and Functional Characterization of the Three Zebrafish Transglutaminases 2” (International Journal of Molecular Sciences, 2023).
